Measured values taken from ChEMBL document CHEMBL6121052, “Design of ROS-Triggered Sesquiterpene Lactone SC Prodrugs as TrxR1 Covalent Inhibitors for the Treatment of Non-Small Cell Lung Cancer” (J Med Chem, 2025).
The source made the active and inactive calls. The calls are words filed in the database; no cut-off is given here.

What was measured:
NCI-H1299 [1] = test: Antitumor activity against human NCI-H1299 cells xenografted in BALB/c mouse assessed as reduction in tumor volume at 5 to 10 mg/kg, po administered every 2 days for 2 weeks; type: functional, organism-based; conditions: dose 5-10 mg/kg
NCI-H1299 [2] = test: Induction of apoptosis in human NCI-H1299 cells assessed as early apoptotic cells at 10 uM measured after 48 hrs by Annexin V/FITC staining based flow cytometric analysis (reference value: 1.14 %); type: functional
[3] = Clearance in male Sprague-Dawley rat at 10 mg/kg, iv measured upto 24 hrs by LC-MS/MS analysis; type: ADME, organism-based; conditions: in vivo
Mitochondrial membrane = test: Induction of mitochondrial membrane potential loss in human A549 cells assessed as increase in green fluorescence upto 10 uM incubated for 24 hrs by JC-1 staining based confocal microscopy analysis; type: cell membranes
NCI-H1299 [4] = test: Antitumor activity against human NCI-H1299 cells xenografted in BALB/c mouse assessed as decrease in TrxR1 expression at 5 to 10 mg/kg, po administered every 2 days for 2 weeks by IHC analysis; type: functional, organism-based; conditions: dose 5-10 mg/kg
NCI-H1299 [5] = test: Induction of apoptosis in human NCI-H1299 cells assessed as early apoptotic cells at 2.5 uM measured after 48 hrs by Annexin V/FITC staining based flow cytometric analysis (reference value: 1.14 %); type: functional
NCI-H1299 [6] = test: Induction of apoptosis in human NCI-H1299 cells assessed as late apoptotic cells at 5 uM measured after 48 hrs by Annexin V/FITC staining based flow cytometric analysis (reference value: 1.96%); type: functional
A549 [7] = test: Induction of apoptosis in human A549 cells assessed as decrease in BCl-2 expression at upto 10 uM incubated for 24 hrs by Western blot analysis; type: functional, cell-based
[8] = Half life in male Sprague-Dawley rat at 10 mg/kg, iv measured upto 24 hrs by LC-MS/MS analysis; type: ADME, organism-based; conditions: in vivo
A549 [9] = test: Induction of apoptosis in human A549 cells assessed as viable cells at 10 uM measured after 48 hrs by Annexin V/FITC staining based flow cytometric analysis (reference value: 90.8 %); type: functional; conditions: read-out: Activity
[10] = Toxicity in BALB/c mouse assessed as spleen damage at 5 to 10 mg/kg, po administered every 2 days for 2 weeks by H and E staining based analysis; type: organism-based; conditions: in vivo, 336 h, dose 5-10 mg/kg
[11] = Toxicity in BALB/c mouse assessed as change in viscera index at 5 to 10 mg/kg, po administered every 2 days for 2 weeks; type: organism-based; conditions: in vivo, 336 h, dose 5-10 mg/kg
NCI-H1299 [12] = test: Induction of apoptosis in human NCI-H1299 cells assessed as increase in green fluorescence intensity upto 10 uM by AO/EB staining based fluorescence microscopic analysis; type: functional, cell-based
[13] = Toxicity in BALB/c mouse assessed as kidney damage at 5 to 10 mg/kg, po administered every 2 days for 2 weeks by H and E staining based analysis; type: organism-based; conditions: in vivo, 336 h, dose 5-10 mg/kg
NCI-H1299 [14] = test: Induction of apoptosis in human NCI-H1299 cells assessed as chromatin condensation upto 10 uM by Hoechst 33258 staining based fluorescence microscopic analysis; type: functional, cell-based
[15] = MRT (0 to t) in male Sprague-Dawley rat at 10 mg/kg, iv measured upto 24 hrs by LC-MS/MS analysis; type: ADME, organism-based; conditions: in vivo
A549 [16] = test: Induction of apoptosis in human A549 cells assessed as early apoptotic cells at 2.5 uM measured after 48 hrs by Annexin V/FITC staining based flow cytometric analysis (reference value: 1.31 %); type: functional
A549 [17] = test: Induction of ferroptosis in human A549 cells assessed as effect on GPX4 protein expression at 10 uM incubated for 24 hrs by Western blotting analysis; type: functional, cell-based
NCI-H1299 [18] = test: Induction of ferroptosis in human NCI-H1299 cells assessed as effect on SLC7A11 protein expression at 10 uM incubated for 24 hrs by Western blotting analysis; type: functional, cell-based
A549 [19] = test: Induction of ferroptosis in human A549 cells assessed as increase in intracellular LPO accumulation at 5 uM incubated for 24 hrs by flow cytometry analysis; type: functional, cell-based
NSCLC = test: Downregulation of TrxR1 expression in human NSCLC cells by IHC analysis; type: functional, cell-based
NCI-H1299 [20] = test: Induction of apoptosis in human NCI-H1299 cells assessed as viable cells at 10 uM measured after 48 hrs by Annexin V/FITC staining based flow cytometric analysis (reference value: 96.3%); type: functional; conditions: read-out: Activity
A549 [21] = test: Induction of apoptosis in human A549 cells assessed as necrotic cells at 10 uM measured after 48 hrs by Annexin V/FITC staining based flow cytometric analysis (reference value: 2.52 %); type: functional
A549 [22] = test: Antiproliferative activity against human A549 cells assessed as decrease in EdU positive cells at 4 uM measured after 14 days by Hoechst 33342 staining based fluorescence microscopic analysis; type: functional, cell-based; conditions: time 14.0 day
A549 [23] = test: Induction of apoptosis in human A549 cells assessed as chromatin condensation upto 10 uM by Hoechst 33258 staining based fluorescence microscopic analysis; type: functional, cell-based
NCI-H1299 [24] = test: Induction of intracellular ROS generation in human NCI-H1299 cells upto 10 uM by DCFH-DA probe based fluorescence assay; type: functional, cell-based
NCI-H1299 [25] = test: Induction of apoptosis in human NCI-H1299 cells assessed as necrotic cells at 5 uM measured after 48 hrs by Annexin V/FITC staining based flow cytometric analysis (reference value: 0.62%); type: functional
[26] = Volume of distribution at steady state in male Sprague-Dawley rat at 10 mg/kg, iv measured upto 24 hrs by LC-MS/MS analysis; type: ADME, organism-based; conditions: in vivo, read-out: Vdss
NCI-H1299 [27] = test: Antitumor activity against human NCI-H1299 cells xenografted in BALB/c mouse assessed as decrease in GPX4 expression at 5 to 10 mg/kg, po administered every 2 days for 2 weeks by IHC analysis; type: functional, organism-based; conditions: dose 5-10 mg/kg
[28] = Cmax in male Sprague-Dawley rat at 10 mg/kg, iv measured upto 24 hrs by LC-MS/MS analysis; type: ADME, organism-based; conditions: in vivo
A549 [29] = test: Induction of apoptosis in human A549 cells assessed as early apoptotic cells at 10 uM measured after 48 hrs by Annexin V/FITC staining based flow cytometric analysis (reference value: 1.31 %); type: functional
NCI-H1299 [30] = test: Antitumor activity against human NCI-H1299 cells xenografted in BALB/c mouse assessed as decrease in Ki-67 expression at 5 to 10 mg/kg, po administered every 2 days for 2 weeks by IHC analysis; type: functional, organism-based; conditions: dose 5-10 mg/kg
NCI-H1299 [31] = test: Induction of ferroptosis in human NCI-H1299 cells assessed as increase in intracellular LPO accumulation at 5 uM incubated for 24 hrs by flow cytometry analysis; type: functional, cell-based
NCI-H1299 [32] = test: Induction of apoptosis in human NCI-H1299 cells assessed as viable cells at 5 uM measured after 48 hrs by Annexin V/FITC staining based flow cytometric analysis (reference value: 96.3%); type: functional; conditions: read-out: Activity

- clearance [3]: 162 mL/min/kg
- Activity (Mitochondrial membrane): Active
- half-life [8]: 3.85 h
- MRT last at 24 h [15]: 4.15 h
- Vd [26]: 57.6 L/kg
- Cmax [28]: 2310 ng/mL
SMILES: CCCNC(=O)O[C@@H]1/C=C(\C)C[C@H]2C=C(C[C@@H]3OC(=O)[C@H](CSC(=S)N(C)C)[C@H]31)C(=O)O2
- Activity (NCI-H1299 [1]): Active
- Activity (NCI-H1299 [2]): 8.46%
- Activity (NCI-H1299 [4]): Active
- Activity (NCI-H1299 [5]): 1.67%
- Activity (NCI-H1299 [6]): 15.6%
- Activity (A549 [7]): Active
- viability at 10 µM (A549 [9]): 68.8%
- Activity [10]: Non-toxic
- Activity [11]: Non-toxic
- Activity (NCI-H1299 [12]): Active
- Activity [13]: Non-toxic
- Activity (NCI-H1299 [14]): Active
- Activity (A549 [16]): 1.56%
- Activity (A549 [17]): Active
- Activity (NCI-H1299 [18]): Active
- Activity (A549 [19]): Active
- Activity (NSCLC): Active
- viability at 10 µM (NCI-H1299 [20]): 68.6%
- Activity (A549 [21]): 3.24%
- Activity (A549 [22]): Active
- Activity (A549 [23]): Active
- Activity (NCI-H1299 [24]): Active
- Activity (NCI-H1299 [25]): 1.45%
- Activity (NCI-H1299 [27]): Active
- Activity (A549 [29]): 3.68%
- Activity (NCI-H1299 [30]): Active
- Activity (NCI-H1299 [31]): Active
- viability at 5 µM (NCI-H1299 [32]): 72.7%
